Source: the NIST ThermoML archive (doi:10.1021/acs.jced.9b00311)
± gives the expanded uncertainty stated by the source.

Legend:
[1] = Liquid; for mass density: Vibrating tube method; for speed of sound: Frequency=3 MHz, Pulse-echo method
[2] = xn = mol fraction of the nth substance listed; settings: Liquid, Vibrating tube method, x1 = 1

O=C=O [carbon dioxide]
mass density [kg/m3], [1]
Settings | 10000 kPa | 20000 kPa | 30000 kPa | 40000 kPa | 50000 kPa | 60000 kPa | 70000 kPa
303.15 K | 770.5 ± 1.8 | 890.1 ± 0.5 | 949.2 ± 0.5 | 989.1 ± 0.5 | 1020 ± 0.5 | 1045.8 ± 0.5 | 1068 ± 0.5
313.15 K | 628.9 ± 1.9 | 839.3 ± 1.1 | 909.2 ± 0.6 | 955.5 ± 0.6 | 990.5 ± 0.5 | 1019 ± 0.5 | 1043.5 ± 0.5

O=C=O [carbon dioxide] + CCCCCCCCCCCC
mass density [kg/m3], [2]
Settings | 10000 kPa | 20000 kPa | 30000 kPa | 40000 kPa | 50000 kPa | 60000 kPa | 70000 kPa
303.15 K | 770.5 ± 1.8 | 890.1 ± 0.5 | 949.2 ± 0.5 | 989.1 ± 0.5 | 1020 ± 0.5 | 1045.8 ± 0.5 | 1068 ± 0.5
313.15 K | 628.9 ± 1.9 | 839.3 ± 1.1 | 909.2 ± 0.6 | 955.5 ± 0.6 | 990.5 ± 0.5 | 1019 ± 0.5 | 1043.5 ± 0.5

CCCCCCCCCCCC [dodecane]
[1]
Settings | mass density, 303.15 K [kg/m3] | mass density, 313.15 K [kg/m3] | speed of sound, 303.15 K [m/s] | speed of sound, 313.15 K [m/s]
10000 kPa | 748.5 ± 0.8 | 741.6 ± 0.8 | 1318.5 ± 1.8 | 1281.7 ± 1.8
20000 kPa | 755.1 ± 0.9 | 748.5 ± 0.9 | 1372.4 ± 1.8 | 1337.9 ± 1.8
30000 kPa | 761.3 ± 1 | 754.8 ± 0.9 | 1421.4 ± 1.8 | 1389.6 ± 1.8
40000 kPa | 766.9 ± 1 | 760.8 ± 1 | 1468.5 ± 1.9 | 1436.8 ± 1.8
50000 kPa | 772 ± 1 | 766.3 ± 1.1 | 1512.3 ± 1.9 | 1481.5 ± 1.9
60000 kPa | 776.8 ± 1.1 | 771.5 ± 1.1 | 1553.7 ± 1.9 | 1524.2 ± 1.9
70000 kPa | 781.4 ± 1.1 | 776.4 ± 1.1 | 1593.3 ± 2 | 1564.6 ± 1.9
